Assay results published in US20230250096A1, “SUBSTITUTED PHENYL-1H-PYRROLO[2,3-c] PYRIDINE DERIVATIVES” (Janssen Pharmaceutica NV, priority 2021, published 2023).
Read-outs that look alike come from different tables or passages of the source.

Tests used:
Type in all cases: cell-based, human
MEIS1 mRNA expression = MEIS1 mRNA expression assay (Quantigene Singleplex) in MOLM14 cells; conditions: 48 hours incubation
Procedure, shortened: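 Read-out: MEIS1 transcript counts, background-subtracted and divided by RPL28, expressed as fold change over DMSO-treated cells, then dose-response modelled for IC50. MOLM14 cells (3,750/well) received graded compound for 48 h before lysis and QuantiGene hybridization at 55 °C.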

KO-52 cells = assay: Proliferation assay (spheroid confluence, 8 days), KO-52 control cell line; conditions: read-out: spheroid assay_KO-52 IC50
Procedure, shortened: (§1)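 Absolute IC50 derived from spheroid confluence imaged on day 8, scaled between DMSO (0%) and a cytotoxic low control such as 1 μM staurosporin, fitted with variable slope, bounds fixed at 0 and 100%. Seeding 200 cells/well (300 for KO-52), ultra-low attachment plates, 0.3% DMSO, 37° C.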

MOLM14 cells = assay: Proliferation assay (spheroid confluence, 8 days), MOLM14; conditions: read-out: spheroid assay_MOLM14 IC50
Procedure, shortened: as §1

OCI-AML3 cells = assay: Proliferation assay (spheroid confluence, 8 days), OCI-AML3; conditions: Homo sapiens, OCI-AML-3, OCI-AML3; read-out: spheroid assay_OCI-AML3 IC50
Protocol: The anti-proliferative effect of menin/MLL protein/protein interaction inhibitor test compounds was assessed in human leukemia cell lines. The cell line MOLM14 harbors a MLL translocation and expresses the MLL fusion protein MLL-AF9, respectively, as well as the wildtype protein from the second allele. OCI-AML3 cells that carry the NPM1c gene mutation were also tested. […] KO-52 was used as a control cell line containing two MLL (KMT2A) wildtype alleles in order to exclude compounds that display general cytotoxic effects.
MOLM14 cells were cultured in RPMI-1640 (Sigma Aldrich) supplemented with 10% heat-inactivated fetal bovine serum (HyClone), 2 mM L-glutamine (Sigma Aldrich) and 50 μg/ml gentamycin (Gibco). KO-52 and OCI-AML3 cell lines were propagated in alpha-MEM (Sigma Aldrich) supplemented with 20% heat-inactivated fetal bovine serum (HyClone), 2 mM L-glutamine (Sigma Aldrich) and 50 μg/ml gentamycin (Gibco).
In order to assess the anti-proliferative effects, 200 MOLM14 cells, 200 OCI-AML3 cells or 300 KO-52 cells were seeded in 200 μl media per well in 96-well round bottom, ultra-low attachment plates (Costar, catalogue number 7007). Cell seeding numbers were chosen based on growth curves to ensure linear growth throughout the experiment. Test compounds were added at different concentrations and the DMSO content was normalized to 0.3%. Cells were incubated for 8 days at 37° C. and 5% CO2. Spheroid like growth was measured in real-time by live-cell imaging (IncuCyteZOOM, Essenbio, 4×objective) acquiring images at day 8. Confluence (%) as a measure of spheroid size was determined using an integrated analysis tool.
In order to determine the effect of the test compounds over time, the confluence in each well as a measure of spheroid size, was calculated. Confluence of the highest dose of a reference compound was used as baseline for the LC (Low control) and the confluence of DMSO treated cells was used as 0% cytotoxicity (High Control, HC).
Absolute IC50 values were calculated as percent change in confluence as follows:
LC=Low Control: cells treated with e.g. 1 μM of the cytotoxic agent staurosporin, or e.g. cells treated with a high concentration of an alternative reference compound
HC=High Control: Mean confluence (%) (DMSO treated cells)
% Effect=100−(100*(Sample−LC)/(HC−LC))
GraphPad Prism (version 7.00) was used to calculate the IC50. Dose-response equation was used for the plot of % Effect vs Log10 compound concentration with a variable slope and fixing the maximum to 100% and the minimum to 0%.

| Compound | IC50 (MEIS1 mRNA expression; Homo sapiens, MOLM-14, 48 h) [nM] | IC50 (KO-52 cells; Homo sapiens) [nM] | IC50 (MOLM14 cells; MOLM14) [nM] | IC50 (OCI-AML3 cells) [nM] | IC50 (MEIS1 mRNA expression) [nM] | IC50 (KO-52 cells) [nM] | IC50 (MOLM14 cells; Homo sapiens, MOLM-14, MOLM14) [nM] |
| --- | --- | --- | --- | --- | --- | --- | --- |
| CNC(=O)[C@H]1CC[C@H](CN2CCC(Cc3cn(-c4ccc(F)cc4C(=O)N(C)C(C)C)c4cncc(C)c34)C2)CC1 (single isomer, unassigned) [Compound 70] | 48 | 8500 | 40 | 68 |  |  |  |
| CNC(=O)[C@H]1CC[C@H](CN2CCC(Cc3cn(-c4ccc(F)cc4C(=O)N(C)C(C)C)c4cncc(C)c34)C2)CC1 (single isomer, unassigned) [Compound 71] |  |  | 83 |  | 48 | > 15000 |  |
| Cc1cncc2c1c(C[C@@H]1CCN(CC3CCOCC3)C1)cn2-c1ccc(F)cc1C(=O)N(C[C@H](C)O)C(C)C (single isomer, unassigned) [Compound 365b] | 11 |  |  | 11 |  |  | 8 |
| COCCN(C)CCCC(C(C)C)N1CC[C@@H](Cc2cn(-c3ccc(F)cc3C(=O)N(C)C(C)C)c3cncc(C)c23)C1 (some centres unmarked) [Compound 1] | 4 | 7500 |  |  |  |  | 2 |
| Cc1cncc2c1c(CC1CN([C@@H](C(C)C)[C@H]3C[C@@H](N4CCC(S(C)(=O)=O)CC4)C3)C1)cn2-c1ccc(F)cc1C(=O)N(C)C(C)C [Compound 33a] | 11 | 3000 |  |  |  |  | 10 |
| CCN(C(=O)c1cc(F)ccc1-n1cc(CC2CN(C(C(C)C)[C@H]3C[C@@H](N4CCN(S(C)(=O)=O)CC4)C3)C2)c2c(C)cncc21)C(C)C (some centres unmarked) [Compound 37a] | 27 | 800 |  |  |  |  | 8 |
| CC(C)C([C@H]1C[C@@H](N(C)C)C1)N1CC(Cc2cn(-c3ccc(F)cc3C(=O)N(C)C(C)C)c3cncc(Cl)c23)C1 (some centres unmarked) [Compound 41] | 15 | 1400 |  |  |  |  | 14 |
| CC(=O)N1CCC(CN2CCC(Cc3cn(-c4ccc(F)cc4C(=O)N(C)C(C)C)c4cncc(C)c34)CC2)CC1 [Compound 58] | 183 | 10400 |  |  |  |  | 176 |
| Cc1cncc2c1c(CC1CN(CC3CCOCC3)C1)cn2-c1ccc(F)cc1C(=O)N(C)C(C)C [Compound 61] | 23 | 7900 |  |  |  |  | 10 |
| CC(=O)N1CCC(CN2CC(Cc3cn(-c4ccc(F)cc4C(=O)N(C)C(C)C)c4cncc(C)c34)C2)CC1 [Compound 63] | 83 | 5900 |  | 121 |  |  | 53 |
| COCC(=O)N1CCC(CN2CC(Cc3cn(-c4ccc(F)cc4C(=O)N(C)C(C)C)c4cncc(C)c34)C2)CC1 [Compound 66] | 46 | 7700 |  |  |  |  | 18 |
| Cc1cncc2c1c(CC1CN(CC3CCN(C(=O)CC#N)CC3)C1)cn2-c1ccc(F)cc1C(=O)N(C)C(C)C [Compound 67] | ~68 | 12000 |  |  |  |  | 48 |
| Cc1cncc2c1c(C[C@@H]1CCN(CC3CCOCC3)C1)cn2-c1ccc(F)cc1C(=O)N(CCO)C(C)C [Compound 357] | 15 | 3000 |  |  |  |  | 8 |
